# Paper PMC6425991, “Peptide Super-Agonist Enhances T-Cell Responses to Melanoma” (Frontiers in Immunology, 2019)
# Several values for one entry are separate records, joined by “and”; a condition that tells them apart may be missing. Equal values may be shown once.
# Columns and labels:
# HLA A2 = target: T1, HLA A2 (Homo sapiens, UniProt P04439, D140Y/D185E/D98H/E176V/E277Q/G131W/G231S/I119V/I121R/I166T/I218V/L300P/L318F/N151K/N90K/P208A/P217A/Q86G/Q94H/R138H/R169H/T345S); assay type: binding
# T1 construct: T2 cells (TAP deficient HLA A2^+) were incubated overnight in serum-free media; endogenous in cells; host or cells: T2 cells
# [1] = test system: CD8 T-cells of healthy donors; conditions: cited from earlier work
# From the text: Analysis of T-cells that responded to autologous tumour within the TIL infusion product used to cure an HLA A2^+ stage IV melanoma patient (code MM909.24), and also in the blood 6 months post cure, identified several persistent TCR clonotypes ([16], [17]). […] […]. Alteration of TCR contact residues has the advantage that the resultant APL are highly likely to be viewed as “nonself” and may therefore have increased potential for breaking immune tolerance. […]. PS-CPL have been explored as a way of selecting such “mimitopes” ([19], [33], [50]). This approach ...
# MM909.24 TIL = assay: Intracellular cytokine staining (IFNγ) of TIL infusion product; assay type: cell-based, human; conditions: T2 cells as antigen presenting cells, 5 h, peptide 10^−5-10^−12 M
# Experimental: Cells were then washed and stained with violet Live/Dead fixable dead cell stain, VIVID (Life Technologies, Paisley, UK) and for surface markers with anti-CD3 peridinin chlorophyll protein (PerCP) (clone BW264/56, Miltenyi Biotech, Bergisch Gladbach, Germany) and anti-CD8 allophycocyanin (APC)-Vio770 (clone BW135/80, Miltenyi Biotech) antibodies. Cells were prepared for ICS by incubating with Cytofix/Cytoperm™ (BD Biosciences), according to manufacturer's instructions, before staining for 20 min on ice with anti-IFNγ APC antibody (clone 45-15, Miltenyi Biotech). Cells were resuspended in FACS buffer (PBS supplemented with 2% FBS) before acquisition on BD FACS Canto II (BD Biosciences). Data was analysed using FlowJo Software (TreeStar, Ashland, OR, USA).
# CD8 T-cell clone ST8.24 = assay: Peptide activation assay, MIP-1β ELISA; assay type: cell-based, human; conditions: overnight, T2 cells, peptide titration
# Experimental: T-cell clones were cultured in R5 for 24 h prior to assay to reduce spontaneous activation. Assays were performed overnight in R5 in 96 U well plates with 3 × 10^5 T-cells and 6 × 10^5 T2 cells with and without desired peptides. The following day, supernatants were harvested, diluted with 70 μL R0 (R10 but without serum) and a half-area-well MIP-1β Enzyme-linked Immunosorbent Assay (ELISA) was carried out as per the manufacturer's instructions (R&D Systems, Minneapolis, MN). A decamer combinatorial peptide library (Pepscan Presto BV, Lelystad, The Netherlands) was stored and used as previously described ([19]). Individual peptides were synthesised to ≥95% purity (GL Biochem, Shanghai, China, or Peptide Protein Research Ltd, Hampshire, UK) stored at −80°C. […] Polyclonal T-cell populations were cultured overnight in R5 in order to reduce spontaneous activation. The following day an IFNγ Enzyme-Linked ImmunoSpot (ELISpot) assay was performed, using Multiscreen plates® (Millipore, Massachusetts, MA) as per the manufacturers' instructions (Mabtech, Nacka Strand, Sweden). 5 × 10^4 T-cells were screened against 10 candidate super-agonist peptides (described previously) at a concentration range of 10^−4 to 10^−8 mM. ELISpot data was collected using an ImmunoSpot® plate reader (CTL, Shaker Heights, Ohio, OH).
Sequence,MFI of HLA A2 expression (HLA A2),healthy donors in which the peptide induced greater CD8 T-cell responses [1],IFNγ production by TIL infusion product (MM909.24 TIL),activation of clone ST8.24 (MIP-1β ELISA) (CD8 T-cell clone ST8.24)
DRASFIKNL,197 and 191 and 182 and 211 and 183 and 188,–,–,–
FATGIGIITV [super-agonist peptide of clone MEL5 from the authors' previous work],–,6 of 10,failed to induce IFNγ production,failed to activate
HPVGEADYFEY,183 and 202 and 199 and 159 and 231,–,–,–
